“And” between values parts separate entries of the source, which are not always exact repeats. Equal entries are not always repeated.
Experiments:
[1] = Urinary recovery of cyclic acetal and conversion to bisphosphonate after IV administration to rats; type: in vivo, rat; conditions: for dosed cyclic acetal converted to risedronate: male, Sprague-Dawley
Method: (§1) Male, Sprague-Dawley, rats weighing approximately 200-400 g were studied.
(§2) All formulations were prepared within approximately 1 hour of dosing.
Generally, animals were administered a 1.7 micromole/kg, 2 ml/kg IV dose (tail vein) of the appropriate formulation using a syringe and attached butterfly needle. All animals remained fasted for an additional 4 hours post dose and were returned to ad libitum access to food thereafter.
(§3) Urine samples were collected into refrigerated plastic conical tubes at approximately 4, 8 and 24 hours post-dose. At the end of each collection period, samples were weighed and transferred to a −70° C. freezer for storage until analyzed.
The absorbed risedronate is stable in vivo and is not metabolized. After IV administration of risedronate to rats, about 60% of risedronate binds to bone and about 40% of risedronate dosed is excreted in urine. When risedronate cyclic acetal compounds are administered intravenously to rats, a percentage of the cyclic acetal can remain intact and can be excreted in urine while a percentage of the cyclic acetal can be converted to risedronate in vivo. Assuming risedronate formed in vivo has the similar tissue distribution profile as described above, about 40% of risedronate generated in vivo will be excreted in urine and about 60% of risedronate generated in vivo will bind to bone. Thus, the percentage of the cyclic acetal which is converted to risedronate in vivo is estimated using Formula A: […]
Risedronate cyclic acetal compounds were administered intravenously in saline (0.9% sodium chloride).

[2] = Solubility in water (remark in synthesis example); type: physicochemical; conditions: calcium salt
[3] = tested on: Sprague Dawley rats (Schenk Model); assay: Schenk Model: bone mineral density of proximal tibial metaphysis by DXA; type: in vivo, rat; conditions: for D20, 20% > BMD than control / LED (lowest effective dose): SQ once daily for 7 days, rats; for D20, 20% > BMD than control: logistic dose response relationship; for LED (lowest effective dose): significant anti-resorptive dose vs control; for bone density in the rat proximal tibial metaphysis: Schenk Model
Method: The effect of the compounds (Example 62 (trans) and Example 128) on in vivo bone resorption inhibition and mineralization inhibition was evaluated in the Schenk Model, an animal model system known in the field of bone metabolism. The general principles of this model are disclosed in Shinoda et al., Calcif. Tissue Int., 35: 87-99 (1983); and in Schenk et al., Calcif: Tissue Res. 11: 196-214 (1973).
Male Sprague Dawley rats approximately 6 weeks old with weights ranging between 120 and 150 grams were placed into groups based on body weight, with 4-8 animals per group. All groups received treatment by subcutaneous injection (SQ) once daily for 7 days.
On day 7 after the start of dosing, all animals were euthanized via exsanguination under gas anesthesia and/or CO2. The right tibia and femur were dissected free and placed in 70% ethyl alcohol.
The proximal metaphysis of the right tibia was analyzed using dual energy x-ray absorptiometry (DXA). This provides information on changes in both cortical and cancellous bone density. The primary end-point for this study was bone mineral density (BMD) in the tibia measured using Hologics QDR-4500 densitometer (Hologics, Inc). Statistical evaluation of data was made using parametric and non-parametric analysis of variance and Fisher's protected t-test to determine a statistically significant effect compared to control animals, defined as the lowest effective (significant anti-resorptive) dose (LED).
The dose which increased (BMD) 20% compared to the vehicle group (D20) was calculated via a logistic dose response relationship, which estimates an efficacy value using all animals in the study (Lundy et al., J. Bone Min. Res. 22 (Suppl. 1): S443, (2007)).

[4] = Urinary recovery / risedronate exposure after intraduodenal (ID) and oral (PO) administration to fasted and fed rats; type: in vivo, rat; conditions: for Amount Excreted: Risedronate (risedronate administered): dose 17 micromole/kg, rats
Method: as §1, §2
The appropriate test article formulation was administered to each animal as a 17 micromole/kg, 2 mL/kg dose solution in 0.6% methylcellulose/0.2% Tween 80® by oral gavage. Alternatively, animals were dosed with a 17 micromole/kg, 1 mL/kg dose solution in saline through a cannula into the duodenum. Animals in the fasted groups were fasted for approximately 4 hours after dosing and were returned to ad libitum access to food thereafter. Animals in the fed groups had access to food ad libitum for at least 2 hours prior to dosing, and throughout the day post dose.
as §3
Example 62 (trans) and risedronate were administered via intraduodenal (ID) and oral administration to fasted and fed rats. Similar to the procedure described above in relation to the IV study, the urine of the rats was collected, and risedronate was recovered from urine. Risedronate exposure following ID and oral administration was calculated as percentage of the recovered risedronate from the dosed cyclic acetal (Formula A), and the results were compared to that from dosing with risedronate, See Table 4.

[5] = IV, dose 1.7 micromole/kg, rats, % CV in parentheses
[6] = after IV administration of risedronate to rats

Structure (SMILES): CC(=O)Oc1ccc(C2OP(=O)(O)C(O)(Cc3cccnc3)P(=O)(O)O2)cc1 (centres unmarked) [Example 28]
- urinary recovery of the cyclic acetal ([1]; rat, in vivo, iv): very low

Structure (SMILES): CCCC(=O)Oc1ccc(C2OP(=O)(O)C(O)(Cc3cccnc3)P(=O)(O)O2)cc1 (centres unmarked) [Example 29]
- dosed cyclic acetal converted to risedronate ([1]; rat, in vivo, iv): > 100%
- urinary recovery of the cyclic acetal ([1]; rat, in vivo, iv): very low

Structure (SMILES): CCCC(=O)Oc1ccc(C2OP(=O)(O)C(O)(Cc3cccnc3)P(=O)(O)O2)cc1F (centres unmarked) [Example 30]
- urinary recovery of the cyclic acetal ([1]; rat, in vivo, iv): very low

Structure (SMILES): CC(C)C(=O)Oc1ccc(C2OP(=O)(O)C(O)(Cc3cccnc3)P(=O)(O)O2)cc1 (stereo not drawn) [Example 33 (trans)]
- urinary recovery of the cyclic acetal ([1]; rat, in vivo, iv): very low

Structure (SMILES): CCOC(=O)Oc1ccc(C2OP(=O)(O)C(O)(Cc3cccnc3)P(=O)(O)O2)cc1 (centres unmarked) [Example 36]
- systemic exposure of cyclic acetal and risedronate ([1]; rat, in vivo, iv): both systemic exposure of the cyclic acetal and risedronate

Structure (SMILES): CC(C)=CC(=O)Oc1ccc(C2OP(=O)(O)C(O)(Cc3cccnc3)P(=O)(O)O2)cc1F (centres unmarked) [Example 47]
- urinary recovery of the cyclic acetal ([1]; rat, in vivo, iv): very low

Structure (SMILES): COC(=O)Oc1ccccc1C1OP(=O)(O)C(O)(Cc2cccnc2)P(=O)(O)O1 (stereo not drawn) [Example 50 (trans)]
- systemic exposure of cyclic acetal and risedronate ([1]; rat, in vivo, iv): both systemic exposure of the cyclic acetal and risedronate

Structure (SMILES): O=C(Oc1c(F)cccc1C1OP(=O)(O)C(O)(Cc2cccnc2)P(=O)(O)O1)N1CCOCC1 (centres unmarked) [Example 53]
- solubility in water [2]: very low

Structure (SMILES): CC(C)OC(=O)Oc1ccccc1C1OP(=O)(O)C(O)(Cc2cccnc2)P(=O)(O)O1 (stereo not drawn) [Example 62 (trans)]
- risedronate release rate into the bloodstream vs risedronate ([1]; rat, in vivo, iv): slower
- systemic exposure of cyclic acetal and risedronate ([1]; rat, in vivo, iv): both systemic exposure of the cyclic acetal and risedronate
- D20, 20% > BMD than control [3]: 5 mcg P/kg
- LED (lowest effective dose) [3]: 3 mcg P/kg
- bone density in the rat proximal tibial metaphysis [3]: efficacious

Structure (SMILES): CC(C)OC(=O)Oc1ccc(C2OP(=O)(O)C(O)(Cc3cccnc3)P(=O)(O)O2)c(F)c1 (centres unmarked) [Example 63]
- urinary recovery of the cyclic acetal ([1]; rat, in vivo, iv): very low

Structure (SMILES): O=C(Cc1ccccc1)Oc1ccc(C2OP(=O)(O)C(O)(Cc3cccnc3)P(=O)(O)O2)cc1 (stereo not drawn) [Example 79 (trans)]
- Amount of Cyclic Acetal Excreted [1, 5]: 0.3 (220) % of administered dose excreted in urine

Structure (SMILES): O=C(Cc1ccccc1)Oc1ccc(C2OP(=O)(O)C(O)(Cc3cccnc3)P(=O)(O)O2)cc1 (centres unmarked) [Example 79]
- urinary recovery of the cyclic acetal ([1]; IV, rats, rapid rate of conversion to risedronate in vivo): very low

Structure (SMILES): O=C1OCCN1C(=O)Oc1ccccc1C1OP(=O)(O)C(O)(Cc2cccnc2)P(=O)(O)O1 (centres unmarked) [Example 82]
- dosed cyclic acetal converted to risedronate ([1]; rat, in vivo, iv): 43%

Structure (SMILES): CC1(C)CN(C(=O)Oc2cc(F)c(C3OP(=O)(O)C(O)(Cc4cccnc4)P(=O)(O)O3)c(F)c2)C(=O)O1 (centres unmarked) [Example 83]
- urinary recovery of the cyclic acetal ([1]; rat, in vivo, iv): very low

Structure (SMILES): CCCC(=O)Oc1ccccc1C1OP(=O)(O)C(O)(Cc2cccnc2)P(=O)(O)O1 (centres unmarked) [Example 105]
- urinary recovery of the cyclic acetal ([1]; rat, in vivo, iv): very low

Structure (SMILES): CC(C)OC(=O)Oc1ccccc1C1OP(=O)(O)C(O)(Cn2ccnc2)P(=O)(O)O1 (centres unmarked) [Example 128, Carbonic acid isopropyl ester 2-(2,3,4-trihydroxy-3-imidazol-1-ylmethyl-2,4-dioxo-2λ^5,4λ^5-[1,5,2,4]dioxadiphosphinan-6-yl)-phenyl ester]
- D20, 20% > BMD than control [3]: 0.5 mcg P/kg
- LED (lowest effective dose) [3]: 1 mcg P/kg
- bone density in the rat proximal tibial metaphysis [3]: efficacious

Structure (SMILES): O=P(O)(O)C(O)(Cc1cccnc1)P(=O)(O)O [Risedronate, risedronate, reference compound]
- Amount Excreted: Risedronate (risedronate administered) [1, 5]: 36 (13) % of administered dose excreted in urine and 39 % of administered dose excreted in urine
- risedronate binds to bone [1, 6]: about 60%
- risedronate dosed excreted in urine [1, 6]: about 40%
- Amount Excreted: Risedronate (risedronate administered) ([4]; ID fed, % CV in parentheses): 0.012 (50) % of administered dose excreted in urine
- Amount Excreted: Risedronate (risedronate administered) ([4]; Oral fast): 0.13 % of administered dose excreted in urine
- Amount Excreted: Risedronate (risedronate administered) ([4]; Oral fed): 0.003 % of administered dose excreted in urine
- risedronate exposure with food compared to fasted rats ([4]; fed rats): extensive reduction
- risedronate exposure as estimated by urinary recovery ([4]; orally to fasted rats): less than 1 % of dose
- D20, 20% > BMD than control [3]: 1.8 mcg P/kg
- LED (lowest effective dose) [3]: 1 mcg P/kg

Structure (SMILES): O=P(O)(O)C(O)(Cn1ccnc1)P(=O)(O)O [Zoledronic acid, (1-hydroxy-2-imidazol-1-yl)-ethyl-1,1-bisphosphonic acid, reference compound]
- D20, 20% > BMD than control [3]: 0.1 mcg P/kg
- LED (lowest effective dose) [3]: 0.1 mcg P/kg

— patent publication US8822435B2, “Bisphosphonate compounds” (Warner Chilcott Company, LLC, priority 2009, dated 2014)
